System: cell layers
Assay: USP (87) biological reactivity testing (cytotoxicity)
Format: cell-based
Set-up: key: “severe” reactivity meaning there was nearly complete destruction of all cell layers
Details: dilutions of 50 ppm BAK with EDTA in saline ophthalmic vehicle, down to 5% of use concentration
Procedure: Testing was conducted by a neutral third party laboratory to determine the cytotoxicity of benzalkonium chloride (BAK) when used as a preservative in a standard topical saline ophthalmic solution vehicle. Test solutions of BAK at various dilutions at the typical preservation concentration used in ophthalmic products (50 ppm) were subject to USP (87) biological reactivity testing and graded according to reactivity. All solutions contained EDTA as an adjunct to enable the BAK to be active against gram negative bacteria. All negative and positive controls were nominal.

Substance: benzalkonium chloride [BAK]
- USP (87) biological reactivity grade: severe

Source: patent US12005139B2, “Ophthalmic formulations and related methods” (EternaTear, Inc., priority 2022, dated 2024)
